The text below walks through data of ChEMBL document CHEMBL1135178, “Photo-oxygenation of geraniol: synthesis of a novel series of hydroxy-functionalized anti-malarial 1,2,4-trioxanes” (2002).

Each structure is given as a SMILES string. In brackets after ≈: the same amount, converted by molar mass.

Test [1] concerns Mus musculus. The test can be described thus: Total number of mice protected out of the 5 tested at a dose of 48 mg/kg/day (Observation till day 10 post-infection). The class given is functional.
The test system of test [2] is Mus musculus. Description: The compound was tested in vivo antimalarial response against multidrug-resistant Plasmodium yoelii in Swiss mice (Mus musculus) at a dose of 48 (mg/kg/day) after 7 days. It counts as functional.
Test [3] has as its system Mus musculus. The test can be described thus: The compound was tested in vivo antimalarial response against multidrug-resistant Plasmodium yoelii in Swiss mice (Mus musculus) at a dose of 48 (mg/kg/day) after 10 days. The class given is functional.
Test [4] relates to Mus musculus. Description: (§1) The compound was tested in vivo antimalarial response against multidrug-resistant Plasmodium yoelii in Swiss mice (Mus musculus) at a dose of 48 (mg/kg/day) after 4 day. It counts as functional.
The test system of another test is Plasmodium falciparum. The test can be described thus: Antimalarial activity against Plasmodium falciparum NF54. The class given is functional.
Test [5] has as its system Mus musculus. The test can be described thus: Total number of mice protected out of the 5 tested at a dose of 24 mg/kg/day (Observation till day 10 post-infection). It counts as functional.
Test [6] has as its system Mus musculus. Description: Total number of mice protected out of the 5 tested at a dose of 96 mg/kg/day (Observation till day 10 post-infection). It counts as functional.
Test [7] relates to Mus musculus. The test can be described thus: The compound was tested in vivo antimalarial response against multidrug-resistant Plasmodium yoelii in Swiss mice (Mus musculus) at a dose of 24 (mg/kg/day) after 4 days. It counts as functional.
The test system of test [8] is Mus musculus. Description: The compound was tested in vivo antimalarial response against multidrug-resistant Plasmodium yoelii in Swiss mice (Mus musculus) at a dose of 24 (mg/kg/day) after 7 days. It counts as functional.
For test [9], the system named is Mus musculus. The test can be described thus: The compound was tested in vivo antimalarial response against multidrug-resistant Plasmodium yoelii in Swiss mice (Mus musculus) at a dose of 24 mg/kg/day after 10 days. It counts as functional.
Test [10] has as its system Mus musculus. Description: The compound was tested in vivo antimalarial response against multidrug-resistant Plasmodium yoelii in Swiss mice (Mus musculus) at a dose of 96 (mg/kg/day) after 10 days. It counts as functional, organism-based.
Test [11] concerns Mus musculus. Description: The compound was tested in vivo antimalarial response against multidrug-resistant Plasmodium yoelii in Swiss mice (Mus musculus) at a dose of 96 (mg/kg/day) after 4 day. The class given is functional, organism-based.
Test [12] deals with Mus musculus. The test can be described thus: The compound was tested in vivo antimalarial response against multidrug-resistant Plasmodium yoelii in Swiss mice (Mus musculus) at a dose of 96 (mg/kg/day) after 7 days. The class given is functional, organism-based.
For test [13], the system named is Mus musculus. The description is as §1. The class given is functional, organism-based.

Broadly, the MIC is the lowest concentration found to suppress growth. A low value points to greater potency. For `CCN(CC)CCCC(C)Nc1ccnc2cc(Cl)ccc12` (stereo unspecified) [CHLOROQUINE], in the test with Mus musculus [1], the “No. of mice protected” value is given as 3. The Parasitemia was found to be 17.6% in the test on Mus musculus [2], 32.74% in the test with Mus musculus [3] and 1.53% in the test on Mus musculus [4]. The compound further had an MIC in the test on Plasmodium falciparum of 0.04 µg/mL (≈ 0.125 µM).

In the case of `C=C(CCCO)C1COC2(OO1)C1CC3CC(C1)CC2C3` (stereo unspecified), the MIC against Plasmodium falciparum was 0.125 µg/mL (≈ 0.425 µM).

In turn, `C=C(CCCO)C1COC2(CCCCC2)OO1` (stereo unspecified) came in with an MIC in the test on Plasmodium falciparum of 1 µg/mL (≈ 4.13 µM).

Consider `C=C(C)C(O)CCC(=C)C1COC(C)(C)OO1` (stereo unspecified), for which 0.5 µg/mL (≈ 2.06 µM) was the least that counted as inhibitory against Plasmodium falciparum (MIC).

Turning to `C[C@@H]1CC[C@H]2[C@@H](C)C(=O)O[C@@H]3O[C@@]4(C)CC[C@@H]1[C@]32OO4` [ARTEMISININ], the MIC in the test on Plasmodium falciparum came to 0.031 µg/mL (≈ 0.11 µM). Against the preceding compound, the MIC is about 16-fold lower.

Consider `C=C(C)C(O)CCC(=C)C1COC2(CCCCC2)OO1` (stereo unspecified), for which the MIC in the test on Plasmodium falciparum turned out to be 0.125 µg/mL (≈ 0.443 µM).

`C=C(CCCO)C1COC(C)(C)OO1` (stereo unspecified): the lowest concentration to inhibit growth with Plasmodium falciparum (MIC) was 1 µg/mL (≈ 4.94 µM). Against the preceding compound, the MIC is about 8-fold higher.

As for `C=C(C)C(O)CCC(=C)C1COC2(CCCC2)OO1` (stereo unspecified), the lowest concentration to inhibit growth with Plasmodium falciparum (MIC) was 0.125 µg/mL (≈ 0.466 µM).

In the case of `C=C(C)C(O)CCC(=C)C1COC2(OO1)C1CC3CC(C1)CC2C3` (stereo unspecified), the entries for the “No. of mice protected” value with Mus musculus [5], in the test on Mus musculus [1] and with Mus musculus [6] were 2, 4 and 5, respectively. In addition, the Parasitemia with Mus musculus [2] is 2.04%; with Mus musculus [7], 2.42%; in the test on Mus musculus [8] it was 13.38%; in the test with Mus musculus [9], 28.4%; with Mus musculus [10], “Nil”; in the test on Mus musculus [11], “Nil”. For the same compound, the Parasitemia result is “Nil” with Mus musculus [12], 10.5% in the test on Mus musculus [3] and “Nil” in the test on Mus musculus [13]. In the test with Plasmodium falciparum, this compound yielded an MIC of 0.031 µg/mL (≈ 0.0927 µM).

On to `C=C(CCCO)C1COC2(CCCC2)OO1` (stereo unspecified), for which the MIC with Plasmodium falciparum turned out to be 0.25 µg/mL (≈ 1.1 µM).
